According to paper PMC6286779, “HLA-A2-Restricted Epitopes Identified from MTA1 Could Elicit Antigen-Specific Cytotoxic T Lymphocyte Response” (Journal of Immunology Research, 2018):
No end group written: not given here.

Columns and labels:
HLA-A*0201 molecules = HLA-A*0201 molecules (Homo sapiens, UniProt P04439, D140Y/D185E/D98H/E176V/E277Q/G131W/G231S/I119V/I121R/I166T/I218V/L300P/L318F/N151K/N90K/P208A/P217A/Q86G/Q94H/R138H/R169H/T345S); assay: T2 binding assay; conditions: T2 cells 1 × 10^6 cells/ml, peptide 50 μg/ml, 3 μg/ml β2-M, serum-free RPMI 1640, 18 h, 37°C; BB7.2 staining, flow cytometry; FI > 1.5 = high affinity
Description: The binding affinity of these peptides to HLA-A^∗0201 was evaluated according to our previous study. Briefly, T2 cells (1 × 10^6 cells/ml) were incubated with each peptide (50 μg/ml) and 3 μg/ml human β2-microglobulin (β2-M, Merck, Germany) in serum-free RPMI 1640 medium for 18 h at 37°C in a humidified atmosphere of 5% CO2. Then cells were washed twice and incubated with the anti-human HLA-A2 PE-Cyanine7 mAb, BB7.2 (eBioscience, USA) for 0.5 h at 4°C. Finally, cells were collected, washed, and analyzed using flow cytometry (FACSCalibur, Becton Dickinson, USA). The fluorescence index (FI) calculation was performed as follows: FI = [(mean fluorescence intensity (MFI) of the given peptide − background) − (MFI of the PBS control group − background)]/[(MFI of the PBS control group − background)]. The MFI value of cells untreated with peptides and antibodies was employed as background. Peptides with an FI factor of more than 1.5 were classed as high-affinity candidates.

[1] = test system: SW620 incubated with an anti-human HLA-A2 antibody; assay: LDH cytotoxicity assay, CTLs induced in vitro, HLA-A2 blocked; type: cell-based; conditions: peptide-induced CTLs, BB7.2 added 30 min before effectors
Description: (§1) CTL induction in vitro was conducted according to the procedures previously described. Briefly, PBMCs from eight HLA-A^∗02^+ healthy donors were isolated using Ficoll-Paque density gradient centrifugation and resuspended in RPMI 1640 medium supplemented with 10% FBS. Then, PBMCs were stimulated three times (once a week) with the indicated peptides (10 μg/ml) or protein MTA1(1–283) (at final concentrations of 0, 1, 10, 30, and 50 μg/ml) for 21 days. Human recombinant cytokine interleukin-2 (IL-2) (50 U/ml) was added on day 3 and 1 day after each stimulation. The cytotoxic assay (lactate dehydrogenase (LDH) assay) and IFN-γ secretion enzyme-linked immunospot (ELISPOT) assay were performed on day 21.
(§2) Cytotoxic activity of induced T cells was tested based on the quantitation of LDH release using the nonradioactive cytotoxicity assay kit (Promega, USA) at the gradient E/T ratio [29, 31]. Target cells which expressed different levels of MTA1 or peptide-pulsed T2 cells were used as target cells. The anti-human HLA-A2 antibody (BB7.2) was added 30 min before adding effector cells to determine the HLA restriction. Target cells (5 × 10^3/well) were cocultured with the effector cells at 37°C for 4 h. The percentage of specific lysis of the target cells was determined using the equation: percentage of specific lysis = [(experimental release − effector spontaneous release − target spontaneous release)/(target maximum release − target spontaneous release)] × 100.

[2] = test system: PBMCs from HLA-A*02+ healthy donors; assay: IFN-γ ELISPOT of CTLs induced in vitro; type: cell-based, human; conditions: PBMCs of six donors stimulated with peptide 10 μg/ml three times, day 21; stimulators peptide-pulsed T2 cells (50 μg/ml); 1 × 10^5 effectors; mean, n = 6
Description: as §1
The ELISPOT assay was performed using a commercial kit (Dakewe, China) according to the procedures previously described. Briefly, T2 cells incubated with/without candidate peptide (50 μg/ml) were used as the stimulating cells, effector cells (1 × 10^5) and stimulator cells (peptide-pulsed T2 cells or T2 cells only, 1 × 10^5) were seeded into the 96-well plate precoated with an anti-human (or anti-mouse) IFN-γ antibody. After incubation at 37°C for 18 h, cells were removed, and plates were processed for analysis as instructed. The spot number was determined automatically using a computer-assisted spot analyzer (Dakewe, China).

[3] = target: T1, peptide/HLA-A*0201 complexes (Homo sapiens, UniProt P04439, D140Y/D185E/D98H/E176V/E277Q/G131W/G231S/I119V/I121R/I166T/I218V/L300P/L318F/N151K/N90K/P208A/P217A/Q86G/Q94H/R138H/R169H/T345S); assay: T2 stabilization (stability) assay; type: binding; conditions: T2 cells, peptide 50 μg/ml, 18 h, then brefeldin A 10 μg/ml 1 h; read at 0, 2, 4, 6 h, 37°C; flow cytometry
T1 construct: endogenous in cells; host or cells: T2 lymphoblastic cell line (TAP-deficient)
Description: For the stability assay, each of the selected peptides (50 μg/ml) was incubated with T2 cells (1 × 10^6 cells/ml) for 18 h in serum-free RPMI 1640 medium supplemented with 3 μg/ml β2-M at 37°C. Thereafter, cells were washed twice and incubated with brefeldin A (10 μg/ml, eBiosciences, USA) for 1 h. Subsequently, the cells were washed and incubated for 0, 2, 4, and 6 h at 37°C. Cells were washed twice, stained with BB7.2 for 0.5 h at 4°C. Finally, cells were collected, washed, and analyzed by flow cytometry. Dissociation complex 50 (DC50) was defined as time (t) required for the loss of 50% of the HLA-A^∗0201/peptide complexes stabilized at 0 h.

HT-29 (HLA-A2−, MTA1+) = assay: LDH cytotoxicity assay, CTLs induced in vitro; type: cell-based, human; conditions: peptide-induced CTLs, HLA-A2-negative control target
Description: as §1, §2

SW620 (HLA-A2+, MTA1+) = assay: LDH cytotoxicity assay, CTLs induced in vitro; type: cell-based, human; conditions: CTLs induced by peptide 10 μg/ml from donor no. 6; E/T 50 : 1; LDH release, 4 h; n = 3
Description: as §1, §2

[4] = test system: MDA-MB-231 (HLA-A2+, MTA1+); assay: LDH cytotoxicity assay, CTLs induced in vitro; type: cell-based, human; conditions: CTLs induced by peptide 10 μg/ml from donor no. 6; E/T 50 : 1; LDH release, 4 h; n = 3
Description: as §1, §2

MCF-7 (HLA-A2+, MTA1+) = assay: LDH cytotoxicity assay, CTLs induced in vitro; type: cell-based, human; conditions: peptide-induced CTLs from healthy donors, E/T 50 : 1
Description: as §1, §2

[5] = test system: Het-1A (HLA-A2+, MTA1low); assay: LDH cytotoxicity assay, CTLs induced in vitro; type: cell-based, human; conditions: peptide-induced CD8+ T cells, E/T 50 : 1
Description: as §1, §2

[6] = target: HLA-A*0201 molecule on T2 cells (human (endogenous in T2) | human); assay: flow cytometry on cells; stability assay: T2 cells loaded with peptide (50 μg/ml) and 3 μg/ml β2-M for 18 h at 37°C, brefeldin A (10 μg/ml) 1 h, then 0, 2, 4 and 6 h at 37°C; stained with BB7.2; DC50 = time for the loss of 50% of the HLA-A*0201/peptide complexes stabilized at 0 h
[7] = target: HLA-A*0201 molecule on T2 cells (human (endogenous in T2) | human); assay: flow cytometry on cells; T2 binding assay: T2 cells (1 x 10^6 cells/ml) with peptide (50 μg/ml) and 3 μg/ml human β2-M in serum-free RPMI 1640, 18 h, 37°C; surface HLA-A2 stained with BB7.2 PE-Cyanine7; fluorescence index (FI); FI > 1.5 classed as high affinity

Molecule	FI (fluorescence index) (HLA-A*0201 molecules)	DC50 [6] [h]	FI (fluorescence index) [7]	other results
ALADKHATL [Peptide P57]	1.56			lysis of SW620 cells incubated with an HLA-A2 blocking antibody [1]: did not lyse; IFN-γ ELISPOT mean spot intensities [2]: 543; DC50: time required for the loss of 50% of the HLA-A*0201/peptide complexes stabilized at 0 h [3]: >6 h; lysis of HT-29 cells (HT-29 (HLA-A2−, MTA1+)): did not lyse; lysis rate of SW620 cells (SW620 (HLA-A2+, MTA1+)): 45.8%; lysis rate of MDA-MB-231 cells [4]: 30.5%; rate of MCF-7 cell lysis (MCF-7 (HLA-A2+, MTA1+)): 17.6%
FLSRQLESL [Peptide P109]	2.61			lysis of SW620 cells incubated with an HLA-A2 blocking antibody [1]: did not lyse; IFN-γ ELISPOT mean spot intensities [2]: 453; DC50: time required for the loss of 50% of the HLA-A*0201/peptide complexes stabilized at 0 h [3]: >6 h; lysis of HT-29 cells (HT-29 (HLA-A2−, MTA1+)): did not lyse; lysis rate of SW620 cells (SW620 (HLA-A2+, MTA1+)): 65.5%; lysis rate of MDA-MB-231 cells [4]: 32.2%; rate of MCF-7 cell lysis (MCF-7 (HLA-A2+, MTA1+)): 23.8%; rate of Het-1A cell lysis [5]: 11.9%
HBcAg 18-27 peptide		> 6		
ILIGETIKI [COX-2_321-329, reference compound]	1.905			DC50: time required for the loss of 50% of the HLA-A*0201/peptide complexes stabilized at 0 h [3]: >6 h
YQADITDLL [Peptide P173]	0.22			
YQADITDLL [MTA1 peptide P173]			0.22	
ILIGETIKI (not fully specified) [cyclooxygenase-2 (COX-2) 321-329 peptide]		> 6	1.91	
ALADKHATL [MTA1 peptide P57]		> 6	1.56	
YLIRRIEEL [MTA1 peptide P22]		> 2	2.08	
FLSRQLESL [MTA1 peptide P109]		> 6	2.61	
TLLNETESL [MTA1 peptide P129]		> 6	1.28	
